{
  "source": "paper PMC6789174",
  "about": "(Drug Design, Development and Therapy, 2019)",
  "key": {"Acetylcholinesterase": {"biological_target": "Acetylcholinesterase (Homo sapiens, UniProt P22303)", "sequence (P22303 32-614, species assumed)": "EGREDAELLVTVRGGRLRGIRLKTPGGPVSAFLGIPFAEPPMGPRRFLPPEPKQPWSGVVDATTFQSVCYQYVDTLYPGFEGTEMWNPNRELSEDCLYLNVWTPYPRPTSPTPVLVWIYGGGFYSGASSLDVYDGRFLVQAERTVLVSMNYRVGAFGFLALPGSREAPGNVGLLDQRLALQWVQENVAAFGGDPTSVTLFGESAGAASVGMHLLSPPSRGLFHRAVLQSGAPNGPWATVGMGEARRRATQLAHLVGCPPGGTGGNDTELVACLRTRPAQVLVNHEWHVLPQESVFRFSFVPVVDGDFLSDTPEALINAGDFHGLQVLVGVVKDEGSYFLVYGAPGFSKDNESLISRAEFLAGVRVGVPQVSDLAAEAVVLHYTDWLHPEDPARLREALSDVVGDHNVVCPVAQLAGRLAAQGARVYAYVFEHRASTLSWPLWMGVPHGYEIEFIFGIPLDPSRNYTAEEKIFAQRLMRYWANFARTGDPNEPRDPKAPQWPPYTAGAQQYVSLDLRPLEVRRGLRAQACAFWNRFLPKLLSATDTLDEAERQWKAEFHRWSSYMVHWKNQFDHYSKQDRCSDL", "assay": "biochemical"}, "Butyrylcholinesterase": {"biological_target": "Butyrylcholinesterase (Homo sapiens, UniProt P06276)", "sequence (P06276 29-602)": "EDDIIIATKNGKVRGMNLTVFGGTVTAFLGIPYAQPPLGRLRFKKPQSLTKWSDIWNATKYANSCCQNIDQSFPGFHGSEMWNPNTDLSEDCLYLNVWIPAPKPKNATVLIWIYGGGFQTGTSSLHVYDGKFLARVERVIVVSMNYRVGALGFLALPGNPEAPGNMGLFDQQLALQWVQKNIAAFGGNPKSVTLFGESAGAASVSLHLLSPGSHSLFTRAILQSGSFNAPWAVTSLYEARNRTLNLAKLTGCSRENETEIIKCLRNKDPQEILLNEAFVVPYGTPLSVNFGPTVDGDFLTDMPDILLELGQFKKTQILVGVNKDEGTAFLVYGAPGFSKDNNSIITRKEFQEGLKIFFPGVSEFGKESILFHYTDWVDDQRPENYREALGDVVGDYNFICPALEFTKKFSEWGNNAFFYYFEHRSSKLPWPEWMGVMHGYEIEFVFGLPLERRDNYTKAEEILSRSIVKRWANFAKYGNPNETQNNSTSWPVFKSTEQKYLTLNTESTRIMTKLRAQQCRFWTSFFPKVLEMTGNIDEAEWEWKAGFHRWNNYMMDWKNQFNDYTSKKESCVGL", "assay": "Anticholinesterase assay", "assay_type": "biochemical"}, "porcine α-amylase": {"biological_target": "T1, porcine α-amylase (Sus scrofa, UniProt P00690)", "T1 sequence (P00690 16-511)": "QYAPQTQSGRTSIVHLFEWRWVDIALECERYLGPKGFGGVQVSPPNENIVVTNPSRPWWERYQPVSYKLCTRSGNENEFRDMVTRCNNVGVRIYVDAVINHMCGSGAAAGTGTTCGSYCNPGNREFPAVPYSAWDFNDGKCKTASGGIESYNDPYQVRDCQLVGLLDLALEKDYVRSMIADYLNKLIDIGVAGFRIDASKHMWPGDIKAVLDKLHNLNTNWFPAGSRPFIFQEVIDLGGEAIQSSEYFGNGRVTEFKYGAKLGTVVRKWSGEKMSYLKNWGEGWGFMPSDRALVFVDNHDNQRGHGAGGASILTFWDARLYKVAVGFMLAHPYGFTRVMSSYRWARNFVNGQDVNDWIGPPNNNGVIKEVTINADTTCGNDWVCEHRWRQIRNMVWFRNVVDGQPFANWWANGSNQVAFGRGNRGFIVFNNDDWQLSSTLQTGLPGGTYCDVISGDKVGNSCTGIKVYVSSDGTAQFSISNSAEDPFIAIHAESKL", "assay": "biochemical"}, "α-glucosidase": {"biological_target": "α-glucosidase (Saccharomyces cerevisiae, UniProt P53341)", "sequence (P53341 whole entry)": "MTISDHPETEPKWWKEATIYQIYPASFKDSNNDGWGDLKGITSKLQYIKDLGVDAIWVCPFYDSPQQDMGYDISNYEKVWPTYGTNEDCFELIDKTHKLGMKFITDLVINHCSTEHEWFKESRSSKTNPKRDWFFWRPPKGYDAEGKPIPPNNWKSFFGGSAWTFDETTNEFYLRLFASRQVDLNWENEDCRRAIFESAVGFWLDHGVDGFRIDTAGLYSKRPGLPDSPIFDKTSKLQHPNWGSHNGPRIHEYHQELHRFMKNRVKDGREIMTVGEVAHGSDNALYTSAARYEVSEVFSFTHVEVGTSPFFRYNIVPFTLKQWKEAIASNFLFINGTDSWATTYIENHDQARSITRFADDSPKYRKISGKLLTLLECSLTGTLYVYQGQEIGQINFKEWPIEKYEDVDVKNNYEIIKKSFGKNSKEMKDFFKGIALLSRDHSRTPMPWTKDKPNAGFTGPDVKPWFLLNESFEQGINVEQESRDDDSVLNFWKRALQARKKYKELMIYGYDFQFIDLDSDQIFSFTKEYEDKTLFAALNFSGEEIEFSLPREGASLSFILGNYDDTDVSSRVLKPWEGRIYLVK", "assay": "Alpha glucosidase inhibition", "assay_type": "biochemical", "details": "concentration 250 μg/mL"}, "glucose-6-phosphatase": {"biological_target": "T2, glucose-6-phosphatase (Homo sapiens, UniProt P35575)", "T2 sequence (P35575 1-357)": "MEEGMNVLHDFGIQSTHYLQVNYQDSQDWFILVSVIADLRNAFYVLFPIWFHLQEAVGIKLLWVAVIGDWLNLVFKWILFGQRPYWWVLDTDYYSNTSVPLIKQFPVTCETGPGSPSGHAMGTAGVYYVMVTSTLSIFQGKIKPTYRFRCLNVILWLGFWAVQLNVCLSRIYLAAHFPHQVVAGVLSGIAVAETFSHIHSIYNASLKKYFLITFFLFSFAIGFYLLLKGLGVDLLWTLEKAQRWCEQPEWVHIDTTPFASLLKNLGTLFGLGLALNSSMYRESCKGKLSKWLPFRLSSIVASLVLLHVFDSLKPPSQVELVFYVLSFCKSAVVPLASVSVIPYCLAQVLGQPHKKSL", "assay": "Glucose-6-phosphatase activity", "assay_type": "biochemical", "details": "33°C, pH 6.7, control 72.0"}, "[1]": {"assay": "DPPH free radical scavenging"}, "[2]": {"assay": "ABTS free radical scavenging"}, "[3]": {"system": "Agrobacterium tumefaction", "assay": "Anti-bacterial activity, agar well diffusion", "assay_type": "cell-based"}, "Proteus vulgaris": {"system": "Proteus vulgaris", "assay": "Anti-bacterial activity, agar well diffusion", "assay_type": "cell-based"}, "Staphylococcus aureus": {"system": "Staphylococcus aureus", "assay": "Anti-bacterial activity, agar well diffusion", "assay_type": "cell-based"}, "[4]": {"details": "read-out: %AChE Inhibition (mean ± SEM)"}, "[5]": {"details": "read-out: %BChE Inhibition (mean ± SEM)"}, "[6]": {"details": "read-out: ZI (Zone of inhibition), Agrobacterium tumefaction"}, "[7]": {"details": "read-out: ZI (Zone of inhibition), Proteus vulgaris"}, "[8]": {"details": "read-out: ZI (Zone of inhibition), Staphylococcus aureus"}},
  "data": [
    {"smiles": "Cc1ccc(NC(=S)Nc2ccccc2)c(C)c1", "note": "[Compound IV, 1-(2,4-dimethylphenyl)-3-phenylthiourea]", "values": [
      {"measurement": "IC50", "setting": "Acetylcholinesterase", "result": 1960, "unit": "µM"},
      {"measurement": "inhibition at 125 µg/mL", "setting": "Acetylcholinesterase; [4]", "result": "42 ± 1.01", "unit": "%"},
      {"measurement": "inhibition at 250 µg/mL", "setting": "Acetylcholinesterase; [4]", "result": "45.1 ± 1.83", "unit": "%"},
      {"measurement": "inhibition at 500 µg/mL", "setting": "Acetylcholinesterase; [4]", "result": "50 ± 1.88", "unit": "%"},
      {"measurement": "inhibition at 1000 µg/mL", "setting": "Acetylcholinesterase; [4]", "result": "64 ± 1.7", "unit": "%"},
      {"measurement": "IC50", "setting": "Butyrylcholinesterase", "result": 585, "unit": "µM"},
      {"measurement": "inhibition at 125 µg/mL", "setting": "Butyrylcholinesterase; [5]", "result": "49.8 ± 1.53", "unit": "%"},
      {"measurement": "inhibition at 250 µg/mL", "setting": "Butyrylcholinesterase; [5]", "result": "53.5 ± 1.07", "unit": "%"},
      {"measurement": "inhibition at 500 µg/mL", "setting": "Butyrylcholinesterase; [5]", "result": "60.5 ± 1.61", "unit": "%"},
      {"measurement": "inhibition at 1000 µg/mL", "setting": "Butyrylcholinesterase; [5]", "result": "76.1 ± 1.9", "unit": "%"},
      {"measurement": "IC50", "setting": "porcine α-amylase", "result": 242, "unit": "µM"},
      {"measurement": "inhibition at 125 µg/mL", "setting": "porcine α-amylase; read-out: %Inhibition (mean ± SEM), alpha amylase, concentration 125 µg/mL", "result": "69 ± 1.19", "unit": "%"},
      {"measurement": "inhibition at 250 µg/mL", "setting": "porcine α-amylase; read-out: %Inhibition (mean ± SEM), alpha amylase, concentration 250 µg/mL", "result": "75.63 ± 0.63", "unit": "%"},
      {"measurement": "inhibition at 500 µg/mL", "setting": "porcine α-amylase; read-out: %Inhibition (mean ± SEM), alpha amylase, concentration 500 µg/mL", "result": "79.2 ± 1.09", "unit": "%"},
      {"measurement": "inhibition at 1000 µg/mL", "setting": "porcine α-amylase; read-out: %Inhibition (mean ± SEM), alpha amylase, concentration 1000 µg/mL", "result": "80.1 ± 2.02", "unit": "%"},
      {"measurement": "%Inhibition (mean ± SEM), alpha glucosidase", "setting": "α-glucosidase", "result": "55.88 ± 2.04", "unit": "%"},
      {"measurement": "Total Activity of glucose-6-phosphatase", "setting": "glucose-6-phosphatase; concentration 125 µg/mL", "result": "17.70 mg of P released per hour"},
      {"measurement": "Total Activity of glucose-6-phosphatase", "setting": "glucose-6-phosphatase; concentration 250 µg/mL", "result": "13.58 mg of P released per hour"},
      {"measurement": "Total Activity of glucose-6-phosphatase", "setting": "glucose-6-phosphatase; concentration 500 µg/mL", "result": "11.77 mg of P released per hour"},
      {"measurement": "DPPH IC50", "setting": "[1]", "result": 64, "unit": "µg/mL"},
      {"measurement": "DPPH % I (mean ± S.E.M)", "setting": "[1]; concentration 125 μg/mL", "result": "66.15 ± 1.70", "unit": "%"},
      {"measurement": "DPPH % I (mean ± S.E.M)", "setting": "[1]; concentration 250 μg/mL", "result": "69.31 ± 2.11", "unit": "%"},
      {"measurement": "DPPH % I (mean ± S.E.M)", "setting": "[1]; concentration 500 μg/mL", "result": "74.13 ± 1.51", "unit": "%"},
      {"measurement": "DPPH % I (mean ± S.E.M)", "setting": "[1]; concentration 1000 μg/mL", "result": "79.15 ± 1.23", "unit": "%"},
      {"measurement": "ABTS IC50", "setting": "[2]", "result": 100, "unit": "µg/mL"},
      {"measurement": "ABTS radical scavenging, in words", "setting": "[2]", "result": "moderately effective"},
      {"measurement": "ABTS % I (mean ± S.E.M)", "setting": "[2]; concentration 125 μg/mL", "result": "64.81 ± 1.05", "unit": "%"},
      {"measurement": "ABTS % I (mean ± S.E.M)", "setting": "[2]; concentration 250 μg/mL", "result": "70.13± 0.05", "unit": "%"},
      {"measurement": "ABTS % I (mean ± S.E.M)", "setting": "[2]; concentration 500 μg/mL", "result": "74.99 ± 1.51", "unit": "%"},
      {"measurement": "ABTS % I (mean ± S.E.M)", "setting": "[2]; concentration 1000 μg/mL", "result": "78.15 ± 1.21", "unit": "%"},
      {"measurement": "MIC", "setting": "[3]; read-out: MIC, Agrobacterium tumefaction", "result": 13.5, "unit": "µg/mL"},
      {"measurement": "zone of inhibition at 10 µg/mL", "setting": "[3]; [6]", "result": 14, "unit": "mm"},
      {"measurement": "zone of inhibition at 20 µg/mL", "setting": "[3]; [6]", "result": 18, "unit": "mm"},
      {"measurement": "zone of inhibition at 30 µg/mL", "setting": "[3]; [6]", "result": 23, "unit": "mm"},
      {"measurement": "MIC", "setting": "Proteus vulgaris; read-out: MIC, Proteus vulgaris", "result": 11.9, "unit": "µg/mL"},
      {"measurement": "zone of inhibition at 10 µg/mL", "setting": "Proteus vulgaris; [7]", "result": 14, "unit": "mm"},
      {"measurement": "zone of inhibition at 20 µg/mL", "setting": "Proteus vulgaris; [7]", "result": 18, "unit": "mm"},
      {"measurement": "zone of inhibition at 30 µg/mL", "setting": "Proteus vulgaris; [7]", "result": 23, "unit": "mm"},
      {"measurement": "MIC", "setting": "Staphylococcus aureus; read-out: MIC, Staphylococcus aureus", "result": 4.03, "unit": "µg/mL"},
      {"measurement": "zone of inhibition at 10 µg/mL", "setting": "Staphylococcus aureus; [8]", "result": 21, "unit": "mm"},
      {"measurement": "zone of inhibition at 20 µg/mL", "setting": "Staphylococcus aureus; [8]", "result": 23, "unit": "mm"},
      {"measurement": "zone of inhibition at 30 µg/mL", "setting": "Staphylococcus aureus; [8]", "result": 26, "unit": "mm"}
    ]}
  ]
}
